Data: patent US20190330597A1, “COMPOSITION FOR CULTURE OF PLURIPOTENT STEM CELLS” (The Francis Crick Institute Limited, priority 2017, published 2019)

Assays:
hES cells = hES cells cultured in AI medium with inhibitors of FGF receptors, MEK/ERK or Activin/Nodal (TGFβ) signaling; assay type: cell-based, human; conditions: for morphology / survival of hES cells in AI medium with inhibitor: 100 nM PD173074, 1 μM PD0325901 or 10 μM SB-431542, vs DMSO control; for morphology / survival of hES cells in AI medium with inhibitor / expression of pluripotency proteins OCT4 and NANOG (immunofluorescence): 72 hours; for expression of pluripotency proteins OCT4 and NANOG (immunofluorescence): 100 nM PD173074 or 1 μM PD0325901
Protocol: For culture in AI media, cells were maintained on plates coated with 0.5 μg/cm^2 Laminin-511 (Biolamina, Takara), and generally passaged with ReLeSR, similar to cells in mTeSR™1 on Laminin. Early passage newly-derived hES cells in AI medium were passaged by manual picking. Cells in AI media were also split using various dissociation reagents, as indicated in the Examples. For Accutase or AccuMax (StemCell Technologies), the dissociation reagent was added to wells for 5-10 minutes, the well contents were collected and pelleted, and the dissociation reagent removed. Cells were then resuspended in AI media with or without […] ROCK inhibitor for plating. For Gentle Cell Dissociation Reagent (StemCell Technologies), the reagent was added to wells for 6 minutes, then aspirated and AI medium added. Well contents were collected and disaggregated with a 5 ml stripette. For 0.5 mM EDTA (Sigma), the reagent was added for 5 minutes, then aspirated, and AI medium added and cells disaggregated. For salt-free PBS (Gibco, Life Technologies), the reagent was added for 6 minutes, aspirated, then AI medium added and cells disaggregated.
For inhibitor treatment experiments, cell culture media was supplemented with 100 nM PD173074 (FGF receptor inhibitor), 1 μM PD0325901 (MEK inhibitor) or 10 μM SB-431542 (Activin/Nodal receptor inhibitor) as indicated in the Examples. Cells were exposed to inhibitors for 72 hours.
On the day of fixation, medium was removed from pluripotent cell lines or differentiated cells and the cells were washed with Dulbeco's Phosphate-Buffer saline (PBS) without calcium and magnesium (Thermo Fisher Scientific). Cells were fixed with 4% (w/v) paraformaldehyde (PFA) (ThermoFisher Scientific) for 1 h and permeabilised with 0.5% (w/v) Triton X-100 or 0.5% (v/v) Tween-20 (Sigma Aldrich). Non-specific binding was minimised using 2-10% (v/v) donkey serum (AbCam) in PBS (containing 0.05% (v/v) Tween-20 or 0.01% Tween-20). The following primary antibodies were used (all at 1:500 dilution unless otherwise indicated): anti-NANOG (AF1997 R&D Systems; REC-RCAB0001P, 2B Scientific; 4903P, Cell Signaling Technologies or ab21624, Abcam), anti-SOX17 (AF1924, R&D Systems), anti-TRA-1-81 (MAB4381, Millipore; or 560072, BD Biosciences), anti-TUJ1 (T2200, Sigma), anti-FOXA2 (3143, Cell Signaling), anti-OCT4 (sc-5279, Santa Cruz or 2750S, Cell Signaling Technologies), anti-SSEA4 (MA1-021, Life Technologies or MC-813-70, DSHB, 1:100), anti-TRA-1-60 (MAB4360, Millipore, 1:100), anti-CXCR4 (MAB173, R&D), anti-Desmin (RB-9014-R7, Neomarkers, 1:50), anti-AFP (A0008, Dako), anti-cytokeratin-18 (ab668, Abcam). Primary antibody was removed by washing with PBS (containing 0.05% or 0.01% v/v Tween-20). Secondary antibodies (Alexa Fluor® 488, Alexa Fluor® 594, Alexa Fluor® 555 donkey anti-rabbit, mouse or goat, Molecular Probes) were diluted in blocking solution at a 1:300 concentration and added to the corresponding wells for 1 hour at room temperature. Cells were the washed several times in of 0.1% (v/v) Tween-20 and placed in a last wash for 30 minutes. A drop of Vectashield containing DAPI (Vector Labs) was added to each well prior to imaging.

human embryos = assay: Human embryo culture with growth factor treatment, immunofluorescence and automated quantification; assay type: cell-based
Protocol: Human embryos were donated to the research project by informed consent under the UK Human Fertilisation and […] Licence number R0162. Vitrified embryos frozen in straws were thawed by quickly transferring the contents of the straw from liquid nitrogen directly into thaw solution (Irvine Scientific Vitrification Thaw Kit) and thawed as per manufacturer's instructions. Embryos frozen in cryopets were first thawed for 3 seconds in a 37° C. waterbath before transferring into thaw solution (Irvine Scientific Vitrification Thaw Kit). Embryos frozen in glass ampoules were thawed completely in a 37° C. waterbath after the top of the vial was removed under liquid nitrogen. The contents were emptied onto a petri dish and the embryo transferred through a gradient of sucrose solutions (Quinn's Advantage Thaw Kit, Origio) as per manufacturer's instructions.
Embryos were routinely cultured in Global Media (LifeGlobal) supplemented with 5 mg/mL LifeGlobal Protein Supplement pre-equilibrated in an incubator at 37° C. and 5% CO2. For growth factor or inhibitor treatment, these conditions were further supplemented with FGF2 (3718-FB-01M, R&D) or IGF1 (291-G1-10, R&D) as indicated.
Embryos were fixed with 4% (w/v) paraformaldehyde (PFA) (ThermoFisher Scientific) for 1 h at 4° C. on a rotating shaker and analysed as described previously (Niakan and Eggan, Developmental Biology, 2013: doi: 10.1016/j.ydbio.2012.12.008). Briefly, embryos were then transferred through several washes of 0.1% (v/v) Tween-20 (Sigma Aldrich) diluted in Dulbeco's Phosphate-Buffer saline (PBS) without calcium and magnesium (Thermo Fisher Scientific) to remove residual paraformaldehyde. Embryos were placed for 20 minutes in 0.5% (v/v) Tween-20 for permeabilization. Embryos were blocked for 1 hour at room temperature in blocking solution (10% donkey serum diluted in 0.1% (v/v) Tween-20). Embryos were placed in primary antibodies at a concentration of 1:500 in blocking solution overnight at 4° C. on a rotating shaker. The following primary antibodies were used (all at 1:500 dilution): anti-NANOG (AF1997 R&D Systems, REC-RCAB0001P 2B Scientific, or ab21624, Abcam), anti-GATA6 (SC-9055, Santa Cruz) and anti-SOX17 (AF1924, R & D Systems). The following day, embryos were transferred through 4 washes of 0.1% (v/v) Tween-20 then placed in a last wash for 30 minutes. Secondary antibodies (Cy3, FITC or Cy5 donkey anti-rabbit, mouse or goat, Molecular Probes) were diluted in blocking solution at a 1:300 concentration. Embryos were placed in secondary antibody for 1 hour at room temperature on a rotating shaker, transferred through 4 washes of 0.1% (v/v) Tween-20 and placed in a last wash for 30 minutes. Embryos were placed in a 50 μL 1:3 dilution of Vectashield containing DAPI (Vector Labs): 0.1% (v/v) Tween-20 on a coverslip bottom dish (MatTek) for confocal imaging.
Embryos were imaged on a Leica SP5 inverted confocal microscope (Leica Microsystems GmbH) at a z-section thickness of 3 μm or 2 μm for human or mouse embryos respectively. MINS 1.3 software was used to detect and segment nuclei and thus determine the number of cells in each embryo (http://katlab-tools.org/) (Lou et al., Stem Cell Reports 2014, doi: 10.1016/j.stemcr.2014.01.010). Confocal stacks in .tif format were loaded into the MINS pipeline for automated nuclear segmentation.
The MINS segmentation output was manually checked for appropriate segmentation and mitotic nuclei were removed from the analysis. Data were subsequently plotted using GraphPad Prism version 6 (GraphPad Software, La Jolla, Calif.).

H9 cells = assay: Test of laminin variants as basement membrane substrate for H9 cells in mTeSR1; assay type: cell-based, human; conditions: 0.5 μg/cm^2 coating, mTeSR1 media, 3 days, vs Matrigel
Description: We therefore interrogated the transcriptome data set to identify chemically defined and physiologically relevant substrates for the derivation of hES and iPS cells. We also interrogated the transcriptome data set and identified expression of transcripts for laminin-binding Integrin α6 and Integrin-β1 (ITGA6, ITGB1) in the human blastocyst, as shown in FIG. 3A. […] Consequently, recombinant human Laminin-511 (Biolamina) or a recombinant Laminin-511 E8 fragment (iMatrix-511, Takara) were selected as basement membrane substrates to culture hES cells, in order to recapitulate the niche within the blastocyst. To test the laminin variants, H9 cells in mTeSR™1 media were passaged onto plates coated with 0.5 μg/cm^2 of either iMatrix-511 (Takara) or LN-511 (Biolamina), as well as a control Matrigel plate, and cultured for 3 days.
For culture in mTeSR™1 media (StemCell Technologies), cells were generally maintained on Matrigel-coated (BD Biosciences) tissue culture plates. Matrigel coating was performed for one hour at room temperature (RT) as per the manufacturer's instructions Cells were passaged as clumps using ReLeSR (Stemcell Technologies). ReLeSR was added to wells for 30 seconds at RT then aspirated, then plates were incubated for 5 minutes at 37° C., quenched with mTeSR™1 and lightly tapped to dislodge clumps of the desired size. […]

CCN(CC)CCCCNc1ncc2cc(-c3cc(OC)cc(OC)c3)c(NC(=O)NC(C)(C)C)nc2n1 [FGF receptor inhibitor, PD173074]
morphology / survival of hES cells in AI medium with inhibitor (hES cells): retained the morphology of pluripotent cells | expression of pluripotency proteins OCT4 and NANOG (immunofluorescence) (hES cells): retained the expression

O=C(NOC[C@H](O)CO)c1ccc(F)c(F)c1Nc1ccc(I)cc1F [MEK/ERK inhibitor, PD0325901]
morphology / survival of hES cells in AI medium with inhibitor (hES cells): retained the morphology of pluripotent cells | expression of pluripotency proteins OCT4 and NANOG (immunofluorescence) (hES cells): retained the expression

NC(=O)c1ccc(-c2nc(-c3ccc4c(c3)OCO4)c(-c3ccccn3)[nH]2)cc1 [TGFβ inhibitor, SB-431542]
morphology / survival of hES cells in AI medium with inhibitor (hES cells): underwent apoptosis | NANOG expression in remaining colonies (immunofluorescence) (hES cells; 10 μM SB-431542, 3 days): undetectable in the majority of cells

FGF2
GATA6 (extraembryonic marker) expression (human embryos; 100 ng/ml FGF2 from E2.5): still expressed | NANOG expression compared to untreated controls (immunofluorescence) (human embryos; 100 ng/ml FGF2 from E2.5, analysed at E6-7): loss of NANOG expression | NANOG expression (human embryos; 100 ng/ml FGF2 from E5 to E6-7): remained expressed | SOX17 (extraembryonic marker) expression (human embryos; 100 ng/ml FGF2 from E5 to E6-7): remained expressed | GATA6 (extraembryonic marker) expression (human embryos; 1 μg/ml FGF2 from E2.5): still expressed | NANOG expression compared to untreated controls (immunofluorescence) (human embryos; 1 μg/ml FGF2 from E2.5, analysed at E6-7): loss of NANOG expression

IGF1
increase in the proportion of NANOG expressing cells compared to control embryos (human embryos; 17 nM IGF1 from E2.5, analysed at E6-7, p-value<0.05): 2 fold | KLF17 (epiblast marker) expression (human embryos; human embryos treated with IGF1): expressed in a higher proportion of cells

Laminin-511: recombinant human Laminin-511 (Biolamina)
pluripotency morphology of H9 cells on substrate (H9 cells): equivalent to Matrigel coating
